# Results from patent US11447522B2, “Potent soft anti-inflammatory corticosteroid compounds and uses thereof” (Bodor Laboratories, Inc., priority 2017, dated 2022).
# pIC50: −log10 of the molar value. Like-named read-outs stand apart in the source and are kept apart here.
# Tests used:
# [1] = test system: TNF-α production of LPS-stimulated whole blood cells; experiment: Stability: inhibition of TNF-α production with or without preincubation of the compounds in human plasma/serum; type: cell-based
# Method: (§1) The in vitro anti-inflammatory effect of ED and its analogs was assessed using LPS-induced TNF α-release under various conditions (diluted or undiluted whole human blood, preincubation with sera) to determine the intrinsic anti-inflammatory activity and systemic biological stability of the various compounds.
# (§2) Commercially available human cytokine ELISA sets were used. TNF-α and GM-CSF sets were purchased from BD Pharmingen, San Diego, Calif., USA) and the IL-1β set was obtained from R&D Systems (Minneapolis, Minn., USA). ELISA was performed according to the manufacturer's protocol. Cell-free supernatants were tested in duplicate. Detection limits were 7.8 pg/ml for TNF-α, 4.7 pg/ml for GM-CSF, and 3.9 pg/ml for IL-1β. Results were expressed as the mean percentage of inhibition. IC50 values for test compounds were calculated by linear regression.
# Mononuclear cells from peripheral blood of healthy donors were isolated on Ficoll-gradient. One million cells in 0.9 ml of RPMI 1640 medium were distributed into 24-well plates and serial concentrations of the test compounds, made in fresh human serum either instantly or 18 h previously, were added (0.05 ml) together with the lipopolysaccharide (0.05 ml; 1 μg/ml final concentration). Preincubation of the compounds with serum was carried out at 37° C. Processing of the cultures was done as described above.
# [2] = test system: receptor; settings: scale where dexamethasone is 100; cited from earlier work
# [3] = test system: ovalbumin sensitized and challenged Brown Norway rats; experiment: Airway changes of ovalbumin sensitized and challenged Brown Norway rats, intratracheal administration; type: in vivo; settings: for AHR (airways hyperreactivity) ED50: relative response to maximal acetylcholine dose
# [4] = test system: TNF α-production of LPS-stimulated blood cells; experiment: TNF-α production of lipopolysaccharide-stimulated human blood; type: cell-based
# Method: as §1, §2
# Peripheral blood from healthy donors was collected aseptically into sterile heparinized (Vacutainer™) tubes. Whole blood samples from each individual were parallel used both undiluted and after 5-fold dilution with RPMI-1640 medium in every experiment. Blood samples were distributed into 24-well plates and incubated with serial concentrations of the test compounds and 1 μg/ml lipopolysaccharide for 24 h at 37° C. in a CO2 thermostat. Controls were treated with lipopolysaccharide and the vehicle (PBS or 0.01% dimethyl sulfoxide in PBS). After incubation, cell-free supernatants were separated by centrifugation (1000 g for 10 minutes) and stored at −20° C. until determination of the amount of TNF-α. Test compounds were examined in blood samples from five different individuals. Two parallel cultures per treatments were run.
# [5] = test system: mitogen-induced proliferation of PBMC; experiment: Proliferation of lectin-stimulated peripheral mononuclear cells; type: cell-based, human; settings: read-out: Prolif.**: Inhibition of mitogen-induced proliferation of PBMC
# Method: Mononuclear cells from heparinized peripheral blood of healthy donors were isolated on suitable gradient (Optiprep solution, 1.077 g/ml). Serial dilutions of the test compounds (ranging from 2×10^−6 to 2×10^−8 M) were made in 100 μl of medium per well of sterile round-bottomed 96-well microtiter plate. Control wells contained culture medium only. 100 μl of cell suspension (10^6 cells/ml), containing concanavalin A (2 μg/ml) was added to each well. […] All cultures were done in triplicate. Microtiter plates were incubated for 72 h at 37° C., in 5% CO2 containing humidified atmosphere. For the last 18 h of incubation, [^3H]thymidine was added to the cells cultures, at 0.1 μCi/well final concentration. At the end of the incubation, cells were harvested to glass microfiber filter (Whatman G/F) and associated radioactivity was determined by liquid scintillation.
# [6] = test system: IL-1β from the human monocyte cell line THP-1; experiment: IL-1β production of stimulated THP.1 cells; type: cell-based
# Method: as §2
# THP.1 cells (human monocytic cell line: American Type Culture Collection. Rockville, Md., USA) were maintained in RPMI-1640 medium, supplemented with 10% FCS, 5×10^−5 M 2-merkapto-ethanol, 2 mM glutamine and antibiotics, and were split in every 3rd days. To examine the effect of test compounds 2×10^6 cells/well (24 well plates in 1 ml/well volume) were stimulated with 1 μg/ml LPS and 25 μg/ml silica for IL-1β production as described previously (Németh et al. 1995). The test compounds were dissolved in RPMI-1640 medium or the medium containing 0.01% DMSO. Two parallel cell cultures per treatment groups were run in three independent experiments. IL-1β levels in cell-free supernatants were determined by ELISA.
# [7] = test system: TNF-α production; settings: cited from earlier work
# [8] = Stability in the presence of human plasma (HPLC/MS/MS); type: in vitro ADME; settings: 37° C.
# Method: Etiprednol dicloacetate (BNP-166) was added to freshly prepared human plasma of healthy donors at a concentration of 5 ng/ml, and were incubated at 37° C. for different intervals. After incubation the amount of the original compound (ethyl-17α-dichloroacetoxy-11β-hydroxyandostra-1,4-diene-3-one-17β-carboxylate), and one of its main metabolite, M-OH (17α,11β-dihydroxyandostra-1,4-diene-3-one-17β-carboxylate) were determined using an HPLC/MS/MS method. In brief: Fluocinolone acetonide served as internal standard (20 ng/ml), samples were extracted with a liquid-liquid extraction on Extrelut® columns, and were separated on a Purospher STAR 30×2 mm (3 μm) reversed phase column at a flow rate of 0.3 ml/min, using a linear gradient with a mobile phase system containing acetonitrile, water and acetic acid. Determination were performed on a triple quadrupole mass spectrometer (Perkin-Elmer SCIEX API 2000) supplied with an electrospray interface operated in the positive ionization mode. The multiple ion monitoring, parent→daughter ion transitions of 485.2→265.2, 375.2→265.2 and 495.2→337.2 were used for the quantification of etiprednol dicloacetate, its M-OH metabolite and for the internal standard respectively. Results are expressed as peak areas normalized to the internal control. Stability of the selected ED analogs (10, 11, 13, 17, 21, 25) were determined as described above for ED (3).
# [9] = non-preincubated in human plasma, read-out: Stability*** c: Inhibition of TNF-α production of LPS-stimulated whole blood cells
# [10] = preincubated overnight in human plasma, read-out: Stability*** d: Inhibition of TNF-α production of LPS-stimulated whole blood cells
# [11] = intratracheal, 2 hours prior challenge
# [12] = intratracheal, 2 hours prior challenge, minimal statistically significantly effective dose
# [13] = diluted blood 1:5, read-out: TNFα* a: Inhibition of TNF α-production of LPS-stimulated blood cells
# [14] = undiluted blood, read-out: TNFα* b: Inhibition of TNF α-production of LPS-stimulated blood cells
SMILES,"pIC50 [1, 9]","pIC50 [1, 10]",relative receptor binding activity (RRBA) [2],"Edema formation ED50 [3, 11]","Eosinophilia BALF ED50 [3, 11]","Eosinophilia Perivascular ED50 [3, 11]","Mucus production ED50 [3, 11]","Mucus production, second line (dose type not given) [3, 11]","AHR (airways hyperreactivity) MSED [3, 12]","Edema formation MSED [3, 12]","Eosinophilia BALF MSED [3, 12]","Eosinophilia Perivascular MSED [3, 12]","AHR (airways hyperreactivity) ED50 [3, 11]","pIC50 [4, 13]","pIC50 [4, 14]",pIC50 [5],other results
"CCOC(=O)[C@@]1(OC(=O)C(Cl)Cl)CC[C@H]2[C@@H]3CCC4=CC(=O)C=C[C@]4(C)[C@H]3[C@@H](O)C[C@@]21C [Compound 3, Ethyl 17α-dichloroacetoxy-11β-hydroxyandrosta-1,4-diene-3-one-17β-carboxylate]",7.14,5.57,~200,2.9 µg/kg,≤0.1 µg/kg,>100 µg/kg,13.8 µg/kg,0.1 µg/kg,≈1.0 μg/kg,0.1 µg/kg,0.1 µg/kg,1.0 µg/kg,≈1.0 μg/kg,7.57,6.99,8.00,"Eosinophilia Peribronchial ED50 [3, 11]: 0.62 µg/kg; Eosinophilia Peribronchial MSED [3, 12]: 0.1 µg/kg; inhibition of the liberation of IL-1β [6]: significantly inhibited; loss of activity during incubation ([7]; five days): 100 fold; loss of activity during incubation ([7]; two days): five-fold"
"C[C@@H]1C[C@H]2[C@@H]3C[C@H](F)C4=CC(=O)C=C[C@]4(C)[C@@]3(F)[C@@H](O)C[C@]2(C)[C@@]1(OC(=O)C(Cl)Cl)C(=O)SCF [Compound 25, S-Fluoromethyl 17α-dichloroacetoxy-6α,9α-difluoro-11β-hydroxy-16α-methyl-3-oxoandrosta-1,4-diene-17β-carbothioate]",9.00,7.06,,<1.0 µg/kg,16.1 µg/kg,83.8 µg/kg,7.42 µg/kg,100 µg/kg,10 µg/kg,1.0 µg/kg,1.0 µg/kg,1.0 µg/kg,3.75 µg/kg,8.70,8.52,10.00,"overall in vivo activity compared with the parent steroid ([3]; Table 2 parameters): overall superior to FLU; BALF protein ED50 ([3]; intratracheal, 2 hours prior challenge, broncho-alveolar lavage fluid): 0.64 µg/kg; BALF protein MSED [3, 12]: 100 µg/kg; stability in the presence of human plasma [8]: particularly stable"
"CCOC(=O)O[C@]1(C(=O)OCCl)CCC2C3CCC4=CC(=O)C=CC4(C)C3[C@@H](O)CC21C (stereo partly drawn) [LE, chloromethyl 17α-ethoxycarbonyloxy-11β-hydroxyandrosta-1,4-dien-3-one-17β-carboxylate]",,,160,,,,,,,,,,,,,,
